Assay results taken from patent publication US20210395239A1 (Hoffmann-La Roche Inc., priority 2018, published 2021).

Legend:
hERG channel = target: T1, hERG channel (Homo sapiens, UniProt Q12809); test: hERG channel inhibition assay (patch-clamp, CHOhERG cells); assay type: cell-based; conditions: for safety window (hERG IC20/TLR7/8/9 IC50) compared to the compounds of this invention: result in words; for hERG IC20/TLR7 IC50 / hERG IC20/TLR9 IC50: safety ratio
T1 construct: expressed in transfected cells; host or cells: CHO (Chinese hamster ovary)
T1 sequence (Q12809 whole entry): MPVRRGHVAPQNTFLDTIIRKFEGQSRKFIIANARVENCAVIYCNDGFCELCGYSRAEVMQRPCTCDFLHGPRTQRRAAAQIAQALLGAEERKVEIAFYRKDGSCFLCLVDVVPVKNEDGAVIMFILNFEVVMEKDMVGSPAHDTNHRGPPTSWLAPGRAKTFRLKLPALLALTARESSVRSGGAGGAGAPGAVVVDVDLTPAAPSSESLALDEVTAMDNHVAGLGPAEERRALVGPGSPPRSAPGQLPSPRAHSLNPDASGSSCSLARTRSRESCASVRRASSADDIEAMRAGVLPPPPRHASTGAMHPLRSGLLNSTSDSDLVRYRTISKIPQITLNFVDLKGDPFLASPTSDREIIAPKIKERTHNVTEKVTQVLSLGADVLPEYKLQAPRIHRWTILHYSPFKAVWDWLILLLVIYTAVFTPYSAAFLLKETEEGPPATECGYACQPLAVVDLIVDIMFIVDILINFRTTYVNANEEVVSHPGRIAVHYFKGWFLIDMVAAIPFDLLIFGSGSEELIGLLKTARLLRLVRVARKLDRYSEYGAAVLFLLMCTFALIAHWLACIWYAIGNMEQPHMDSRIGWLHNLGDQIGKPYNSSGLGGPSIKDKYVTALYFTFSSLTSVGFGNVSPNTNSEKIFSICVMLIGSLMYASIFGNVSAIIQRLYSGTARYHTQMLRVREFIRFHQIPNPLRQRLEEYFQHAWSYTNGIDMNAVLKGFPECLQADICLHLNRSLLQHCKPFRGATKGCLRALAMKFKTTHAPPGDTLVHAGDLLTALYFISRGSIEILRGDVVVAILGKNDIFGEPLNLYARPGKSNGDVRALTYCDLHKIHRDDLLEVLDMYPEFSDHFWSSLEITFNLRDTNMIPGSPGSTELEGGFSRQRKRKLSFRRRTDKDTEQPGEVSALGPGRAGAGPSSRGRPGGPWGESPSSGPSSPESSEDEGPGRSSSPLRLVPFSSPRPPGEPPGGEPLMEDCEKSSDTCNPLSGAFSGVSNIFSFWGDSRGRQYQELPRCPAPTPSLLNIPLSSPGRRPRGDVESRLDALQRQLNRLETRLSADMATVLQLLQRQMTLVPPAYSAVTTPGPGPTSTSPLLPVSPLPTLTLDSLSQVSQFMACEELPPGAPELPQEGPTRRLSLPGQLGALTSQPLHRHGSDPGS
Protocol: hERG Channel Inhibition Assay:
The hERG K^+ channels were cloned in humans and stably expressed in a CHO (Chinese hamster ovary) cell line. CHOhERG cells were used for patch-clamp (voltage-clamp, whole-cell) experiments. Cells were stimulated by a voltage pattern to activate hERG channels and conduct IKhERG currents (rapid delayed outward rectifier potassium current of the hERG channel). After the cells were stabilized for a few minutes, the amplitude and kinetics of IKhERG were recorded at a stimulation frequency of 0.1 Hz, (6 bpm). Thereafter, the test compound was added to the preparation at increasing concentrations. For each concentration, an attempt was made to reach a steady-state effect, usually, this was achieved within 3-10 min at which time the next highest concentration was applied. The amplitude and kinetics of IKhERG are recorded in each concentration of the drug which were compared to the control values (taken as 100%). (references: Redfern W S, Carlsson L, Davis A S, Lynch W G, MacKenzie I, Palethorpe S, Siegl P K, Strang I, Sullivan A T, Wallis R, Camm A J, Hammond T G. 2003; Relationships between preclinical cardiac electrophysiology, clinical QT interval prolongation and torsade de pointes for a broad range of drugs: evidence for a provisional safety margin in drug development. Cardiovasc. Res. 58:32-45, Sanguinetti M C, Tristani-Firouzi M. 2006; hERG potassium channels and cardiac arrhythmia. Nature 440:463-469, Webster R, Leishman D, Walker D. 2002; Towards a drug concentration effect relationship for QT prolongation and torsades de pointes. Curr. Opin. Drug Discov. Devel. 5:116-26).

hTLR9 = target: T2, hTLR9 (Homo sapiens, UniProt Q9NR96); set-up: host or cells: HEK; conditions: data disclosed in US20150105370; read-out: HEK/hTLR9 IC50; cited from earlier work
T2 sequence (Q9NR96 26-1032): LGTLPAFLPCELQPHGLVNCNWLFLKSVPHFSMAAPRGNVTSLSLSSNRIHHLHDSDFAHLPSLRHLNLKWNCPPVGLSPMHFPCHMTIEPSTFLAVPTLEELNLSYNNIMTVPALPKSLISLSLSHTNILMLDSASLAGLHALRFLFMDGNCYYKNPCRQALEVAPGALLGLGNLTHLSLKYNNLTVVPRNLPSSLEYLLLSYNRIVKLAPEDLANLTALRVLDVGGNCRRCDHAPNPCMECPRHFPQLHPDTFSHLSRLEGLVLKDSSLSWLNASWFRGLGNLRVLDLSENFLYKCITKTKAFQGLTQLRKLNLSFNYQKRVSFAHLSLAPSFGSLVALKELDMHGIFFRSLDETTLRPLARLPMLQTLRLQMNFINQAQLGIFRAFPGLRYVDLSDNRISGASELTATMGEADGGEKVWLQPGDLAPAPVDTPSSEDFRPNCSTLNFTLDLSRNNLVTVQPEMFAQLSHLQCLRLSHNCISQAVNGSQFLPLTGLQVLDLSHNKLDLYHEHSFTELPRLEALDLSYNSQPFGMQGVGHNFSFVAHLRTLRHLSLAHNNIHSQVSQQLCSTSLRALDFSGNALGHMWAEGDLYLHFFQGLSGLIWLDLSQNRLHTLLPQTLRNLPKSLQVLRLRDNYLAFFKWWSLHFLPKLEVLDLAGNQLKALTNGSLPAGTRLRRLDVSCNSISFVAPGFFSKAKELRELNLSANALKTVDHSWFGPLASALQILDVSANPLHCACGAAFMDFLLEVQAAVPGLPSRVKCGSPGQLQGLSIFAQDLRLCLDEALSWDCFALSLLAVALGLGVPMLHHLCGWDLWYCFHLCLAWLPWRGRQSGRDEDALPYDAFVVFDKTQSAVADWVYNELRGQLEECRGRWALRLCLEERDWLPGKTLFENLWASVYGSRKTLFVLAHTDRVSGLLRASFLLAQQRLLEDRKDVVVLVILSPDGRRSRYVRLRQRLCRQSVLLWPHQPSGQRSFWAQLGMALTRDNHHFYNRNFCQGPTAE

CYP3A4 = target: T3, CYP3A4 (Homo sapiens, UniProt P08684); test: CYP inhibition assay in human liver microsome, CYP3A4; assay type: in vitro ADME; conditions: human, human liver microsomes, probe midazolam 5 μM, substrate midazolam 5 μM, third value of 2C9/2D6/3A4
T3 construct: tissue BD-Gentest 452117; host or cells: human liver microsomes
T3 sequence (P08684 whole entry): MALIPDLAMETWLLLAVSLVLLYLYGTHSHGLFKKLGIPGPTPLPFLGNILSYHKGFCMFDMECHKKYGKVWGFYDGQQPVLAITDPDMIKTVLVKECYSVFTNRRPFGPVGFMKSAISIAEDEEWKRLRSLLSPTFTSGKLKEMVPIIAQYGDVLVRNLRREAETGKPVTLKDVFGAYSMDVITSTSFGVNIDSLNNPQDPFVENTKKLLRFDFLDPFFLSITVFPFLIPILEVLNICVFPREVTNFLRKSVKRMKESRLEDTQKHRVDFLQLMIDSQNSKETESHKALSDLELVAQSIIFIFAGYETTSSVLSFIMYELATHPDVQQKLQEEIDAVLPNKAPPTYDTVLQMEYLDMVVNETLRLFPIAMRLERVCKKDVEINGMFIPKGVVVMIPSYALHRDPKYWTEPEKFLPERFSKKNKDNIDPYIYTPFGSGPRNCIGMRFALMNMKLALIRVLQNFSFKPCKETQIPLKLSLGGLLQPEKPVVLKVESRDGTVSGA
Protocol: (§1) This is a high throughput screening assay used for assessment of reversible inhibition of CYP2C9, CYP2D6, and CYP3A4 activity of test compounds in human liver microsome (HLM) in early discovery stage.
(§2) 10 mM DMSO stock solutions of test compounds were diluted in DMSO to generate 2 mM intermediate stock solution. 250 nL, of intermediate stock solution were transferred in duplicate into 3 separate 384 well microtitre plates (assay-ready plates). A mixture of HLM and each substrate was made up. 45 μL of HLM substrate mix was then transferred to each well of an assay ready plate and mixed. The negative (solvent) and positive controls (standard inhibitor for each CYP) were included in each assay ready plate. The assay ready plate was warmed to 37° C. in an incubator over 10 minutes. 5 μL pre-warmed NADPH regenerating system was added to each incubation well to start the reaction. Final incubation volume was 50 μL. The assay plate then was placed back in the 37° C. incubator. After incubation (10 minutes for CYP2D6) for 5 minutes, incubates were quenched by addition of 50 μL 100% acetonitrile containing internal standards (400 ng/mL 13C6-4′-OH-Diclofenac, 20 ng/mL D3-Dextrorphan and 20 ng/mL D4-1′OH-Midazolam). The supernatants were collected for RapidFire/MS/MS analysis.
(§3) RapidFire online solid phase extraction/sample injection system (Agilent) coupled with API4000 triple quadrupole mass spectrometer (AB Sciex) were used for sample analysis. The mobile phase composed of acetonitrile and water supplemented with 0.1% formic acid. A C4 solid phase extraction cartridge is used for sample separation. MS detection is achieved in positive ion MRM mode.
(§4) Peak areas for substrate, metabolite and internal standard are determined using the RapidFire integrator software (version 3.6.12009.12296). Peak area ratios (PAR) of metabolite and internal standard (stable-labelled metabolite) are then calculated. The measurement window for each experiment is then defined:
(§5) PAR (0% activity)=average PAR for all incubations containing concentrated inhibitor; Par (100% activity)=average PAR for all incubations containing no inhibitor (DMSO controls); % Activity (test inhibitor)=[PAR (test inhibitor)−PAR (0% activity)]/[PAR (100% activity)−PAR (0% activity)]; % Inhibition (test inhibitor)=100-% Activity (test inhibitor).

CYP2C9 = target: T4, CYP2C9 (Homo sapiens, UniProt P11712); test: CYP inhibition assay in human liver microsome, CYP2C9; assay type: in vitro ADME; conditions: human, human liver microsomes, probe diclofenac 5 μM, substrate diclofenac 5 μM, first value of 2C9/2D6/3A4
T4 construct: tissue BD-Gentest 452117; host or cells: human liver microsomes
T4 sequence (P11712 whole entry): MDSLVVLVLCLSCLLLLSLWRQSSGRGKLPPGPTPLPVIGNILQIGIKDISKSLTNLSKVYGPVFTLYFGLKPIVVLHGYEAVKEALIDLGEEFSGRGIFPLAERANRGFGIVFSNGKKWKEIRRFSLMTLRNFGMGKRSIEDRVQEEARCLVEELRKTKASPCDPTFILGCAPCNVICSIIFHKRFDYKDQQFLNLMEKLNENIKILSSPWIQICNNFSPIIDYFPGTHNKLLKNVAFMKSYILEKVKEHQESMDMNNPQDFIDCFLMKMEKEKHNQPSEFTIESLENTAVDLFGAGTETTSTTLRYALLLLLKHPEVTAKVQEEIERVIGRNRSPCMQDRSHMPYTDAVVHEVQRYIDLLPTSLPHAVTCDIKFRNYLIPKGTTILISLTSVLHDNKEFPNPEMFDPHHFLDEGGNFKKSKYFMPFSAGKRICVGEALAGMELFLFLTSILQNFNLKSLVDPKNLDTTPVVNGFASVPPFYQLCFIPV
Protocol: as §1, §2, §3, §4, §5

| Structure (SMILES) | safety window (hERG IC20/TLR7/8/9 IC50) compared to the compounds of this invention (hERG channel) | hERG IC20/TLR7 IC50 (hERG channel) | hERG IC20/TLR9 IC50 (hERG channel) | IC50 (hTLR9) [µM] | inhibition at 5 min, 10 µM (CYP3A4) [%] | inhibition at 5 min, 10 µM (CYP2C9) [%] |
| --- | --- | --- | --- | --- | --- | --- |
| C[C@@H]1CN(c2ccc(C#N)c3ncccc23)C[C@H](CN2CCN(c3ccccn3)CC2)O1 [ER-888285, reference compound] | much narrower safety window | 8.4 | 0.5 | > 2 | – | – |
| C[C@@H]1CN(c2ccc(C#N)c3ncccc23)C[C@H](CN2CCN(c3ccncc3)CC2)O1 [ER-888286, reference compound] | much narrower safety window | 0.3 | 0.2 | > 2 | 5.5 | 29.5 |
